In patent US20190263804A1, “AZABENZIMIDAZOLE DERIVATIVES AS PI3K BETA INHIBITORS” (Janssen Pharmaceutica NV, priority 2016, published 2019):

Key:
PIK3Cβ_h = molecular target: T1, PIK3Cβ_h (Homo sapiens, UniProt P42338); experiment: KINOMEscan enzyme binding assay, PIK3Cβ; settings: KINOMEscan (DiscoveRx)
T1 construct: purchased DiscoveRx Corporation, San Diego (contract assay service)
Experimental: (§1) Enzyme Binding Assays (KINOMEscan®)
(§2) Kinase enzyme binding affinities of compounds disclosed herein were determined using the KINOMEscan technology performed by DiscoveRx Corporation, San Diego, Calif., USA (www.kinomescan.com). Table A reports the obtained Kd values (nM), with the Kd being the inhibitor binding constant (‘n.d.’ means not determined): […]

MTOR_h = molecular target: T2, MTOR_h (Homo sapiens, UniProt P42345); experiment: KINOMEscan enzyme binding assay, MTOR; settings: KINOMEscan (DiscoveRx)
T2 construct: purchased DiscoveRx Corporation, San Diego (contract assay service)
Experimental: as §1, §2

[1] = test system: phosphorylation of Akt (Ser473) in PC-3 cells; experiment: Cellular assay: phospho-Akt (Ser473) MSD ELISA in PC-3 cells; format: cell-based; settings: Homo sapiens, 1 h, 60 min compound incubation, read-out: IC50 pAkt_S473
Experimental: (§3) Cellular activity of PI3K(3 inhibitors was determined by quantifying the phosphorylation of Akt in PC-3 cells. Akt phosphorylated at Ser473 and Thr308 were measured using an enzyme-linked immunosorbent assay (ELISA; Meso Scale Discovery (MSD), Gaithersburg, Md.) and specific primary antibodies from MSD.
(§4) On day 1, PC3 cells (ATCC # […]) were seeded into PerkinElmer MW96 plates at 25.000 cells per well, in 75 μl complete culture medium (DMEM high glucose, AQmedia™, D0819, Sigma-Aldrich) containing 10% heat inactivated FCS and incubated at 37° C., 5% CO2 during 24 hours. On day 2, compound or DMSO (0.3%) was added and cells were further incubated for 60 min at 37° C., 5% CO2 in a total volume of 100 μl of medium.
(§5) The phosphoprotein assay was executed according to vendor instructions in the Phospho-Akt (Ser473) Assay Whole Cell Lysate Kit (MSD # K15100D-3) and the Phospho-Akt (Thr308) Assay Whole Cell Lysate Kit (MSD # K151DYD-3) using the lysis, blocking and wash buffer provided.
(§6) Briefly, at the end of the cell treatment period, media were removed by aspiration and adherent cells were lysed in 50 μl ice-cold lysis buffer. MSD plates are supplied pre-coated with capture antibodies for Phospho-Akt (Ser473 and Thr308). After blocking, lysates from tissue culture plates were added and plates were washed. Then, a solution containing the detection antibody (anti-total Akt conjugated with an electrochemiluminescent compound-MSD Sulfo-tag label) was added. The signals were detected using an MSD SECTOR Imager 6000 and are proportional to the phospho-Akt titres.
(§7) Data were processed. The percentage of inhibition was plotted against the log concentration of test compounds, and the sigmoidal log concentration-effect curve of best fit was calculated by nonlinear regression analysis. From these concentration-response curves, the IC50 values were calculated. Five concentrations were used for curve fitting.

PIK3Cδ_h = molecular target: T3, PIK3Cδ_h (Homo sapiens, UniProt O00329); experiment: KINOMEscan enzyme binding assay, PIK3Cδ; settings: KINOMEscan (DiscoveRx)
T3 construct: purchased DiscoveRx Corporation, San Diego (contract assay service)
T3 sequence (O00329 1-1044): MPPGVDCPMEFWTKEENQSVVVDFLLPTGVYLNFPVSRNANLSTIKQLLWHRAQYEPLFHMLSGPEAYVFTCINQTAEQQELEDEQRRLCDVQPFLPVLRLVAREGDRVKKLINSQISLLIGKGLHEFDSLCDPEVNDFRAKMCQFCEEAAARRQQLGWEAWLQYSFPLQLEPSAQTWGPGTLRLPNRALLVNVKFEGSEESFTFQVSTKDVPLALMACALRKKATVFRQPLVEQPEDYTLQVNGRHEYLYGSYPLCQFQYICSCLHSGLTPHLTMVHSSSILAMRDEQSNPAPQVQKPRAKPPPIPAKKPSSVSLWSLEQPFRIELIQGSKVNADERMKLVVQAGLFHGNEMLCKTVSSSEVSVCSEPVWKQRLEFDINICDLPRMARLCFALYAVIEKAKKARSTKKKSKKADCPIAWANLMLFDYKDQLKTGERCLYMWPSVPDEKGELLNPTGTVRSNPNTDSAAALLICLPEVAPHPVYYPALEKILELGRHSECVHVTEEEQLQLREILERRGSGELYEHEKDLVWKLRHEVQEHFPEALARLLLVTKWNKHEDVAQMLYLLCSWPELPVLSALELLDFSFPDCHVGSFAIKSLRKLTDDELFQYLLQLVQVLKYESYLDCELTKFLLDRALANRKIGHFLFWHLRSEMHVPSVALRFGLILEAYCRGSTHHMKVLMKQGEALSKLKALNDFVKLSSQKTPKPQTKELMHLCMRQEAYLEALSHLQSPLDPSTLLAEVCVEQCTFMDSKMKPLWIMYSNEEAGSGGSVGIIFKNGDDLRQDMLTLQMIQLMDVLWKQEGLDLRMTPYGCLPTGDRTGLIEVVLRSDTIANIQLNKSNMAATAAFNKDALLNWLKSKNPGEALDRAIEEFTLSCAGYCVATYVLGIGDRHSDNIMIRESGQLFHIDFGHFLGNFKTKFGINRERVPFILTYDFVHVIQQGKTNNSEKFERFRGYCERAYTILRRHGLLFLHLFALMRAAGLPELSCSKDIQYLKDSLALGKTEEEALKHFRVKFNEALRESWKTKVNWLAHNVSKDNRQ
Experimental: as §1, §2

PIK3Cγ_h = molecular target: T4, PIK3Cγ_h (Homo sapiens, UniProt P48736); experiment: KINOMEscan enzyme binding assay, PIK3Cγ; settings: KINOMEscan (DiscoveRx)
T4 construct: purchased DiscoveRx Corporation, San Diego (contract assay service)
Experimental: as §1, §2

[2] = test system: phosphorylation of Akt (Thr308) in PC-3 cells; experiment: Cellular assay: phospho-Akt (Thr308) MSD ELISA in PC-3 cells; format: cell-based; settings: Homo sapiens, 1 h, 60 min compound incubation, read-out: IC50 pAkt_Thr308
Experimental: as §3, §4, §5, §6, §7

PIK3Cα_h = molecular target: T5, PIK3Cα_h (Homo sapiens, UniProt P42336); experiment: KINOMEscan enzyme binding assay, PIK3Cα; settings: KINOMEscan (DiscoveRx)
T5 construct: purchased DiscoveRx Corporation, San Diego (contract assay service)
Experimental: as §1, §2

T5 sequence (P42336 whole entry): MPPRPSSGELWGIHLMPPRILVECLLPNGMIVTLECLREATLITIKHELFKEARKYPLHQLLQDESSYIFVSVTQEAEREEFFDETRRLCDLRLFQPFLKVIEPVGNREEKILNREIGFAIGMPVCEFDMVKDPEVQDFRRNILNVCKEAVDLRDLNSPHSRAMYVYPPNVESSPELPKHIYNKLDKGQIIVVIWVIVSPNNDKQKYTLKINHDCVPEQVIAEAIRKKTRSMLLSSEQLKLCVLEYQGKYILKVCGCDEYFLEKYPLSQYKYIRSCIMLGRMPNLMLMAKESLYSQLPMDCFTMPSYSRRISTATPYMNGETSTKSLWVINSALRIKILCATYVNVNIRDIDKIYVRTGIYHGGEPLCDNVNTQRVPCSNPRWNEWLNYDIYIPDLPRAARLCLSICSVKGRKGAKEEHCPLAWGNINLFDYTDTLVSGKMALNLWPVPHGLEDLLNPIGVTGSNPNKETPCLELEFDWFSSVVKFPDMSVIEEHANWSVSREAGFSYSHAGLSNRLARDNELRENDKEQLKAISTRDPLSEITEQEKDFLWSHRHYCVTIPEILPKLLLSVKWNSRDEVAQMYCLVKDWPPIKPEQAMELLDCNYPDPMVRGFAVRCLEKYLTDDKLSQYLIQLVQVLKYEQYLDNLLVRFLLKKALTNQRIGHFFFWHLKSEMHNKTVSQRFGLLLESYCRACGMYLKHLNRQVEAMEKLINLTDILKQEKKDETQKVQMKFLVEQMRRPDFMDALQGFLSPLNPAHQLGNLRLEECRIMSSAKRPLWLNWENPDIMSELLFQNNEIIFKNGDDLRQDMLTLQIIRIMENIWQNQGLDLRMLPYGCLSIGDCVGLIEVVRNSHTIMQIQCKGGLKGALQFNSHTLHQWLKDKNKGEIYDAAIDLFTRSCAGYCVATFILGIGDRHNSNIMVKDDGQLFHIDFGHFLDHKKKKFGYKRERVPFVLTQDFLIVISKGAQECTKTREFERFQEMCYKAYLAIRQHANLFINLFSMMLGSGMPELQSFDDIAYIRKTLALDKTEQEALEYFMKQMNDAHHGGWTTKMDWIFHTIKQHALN
T1 sequence (P42338 whole entry): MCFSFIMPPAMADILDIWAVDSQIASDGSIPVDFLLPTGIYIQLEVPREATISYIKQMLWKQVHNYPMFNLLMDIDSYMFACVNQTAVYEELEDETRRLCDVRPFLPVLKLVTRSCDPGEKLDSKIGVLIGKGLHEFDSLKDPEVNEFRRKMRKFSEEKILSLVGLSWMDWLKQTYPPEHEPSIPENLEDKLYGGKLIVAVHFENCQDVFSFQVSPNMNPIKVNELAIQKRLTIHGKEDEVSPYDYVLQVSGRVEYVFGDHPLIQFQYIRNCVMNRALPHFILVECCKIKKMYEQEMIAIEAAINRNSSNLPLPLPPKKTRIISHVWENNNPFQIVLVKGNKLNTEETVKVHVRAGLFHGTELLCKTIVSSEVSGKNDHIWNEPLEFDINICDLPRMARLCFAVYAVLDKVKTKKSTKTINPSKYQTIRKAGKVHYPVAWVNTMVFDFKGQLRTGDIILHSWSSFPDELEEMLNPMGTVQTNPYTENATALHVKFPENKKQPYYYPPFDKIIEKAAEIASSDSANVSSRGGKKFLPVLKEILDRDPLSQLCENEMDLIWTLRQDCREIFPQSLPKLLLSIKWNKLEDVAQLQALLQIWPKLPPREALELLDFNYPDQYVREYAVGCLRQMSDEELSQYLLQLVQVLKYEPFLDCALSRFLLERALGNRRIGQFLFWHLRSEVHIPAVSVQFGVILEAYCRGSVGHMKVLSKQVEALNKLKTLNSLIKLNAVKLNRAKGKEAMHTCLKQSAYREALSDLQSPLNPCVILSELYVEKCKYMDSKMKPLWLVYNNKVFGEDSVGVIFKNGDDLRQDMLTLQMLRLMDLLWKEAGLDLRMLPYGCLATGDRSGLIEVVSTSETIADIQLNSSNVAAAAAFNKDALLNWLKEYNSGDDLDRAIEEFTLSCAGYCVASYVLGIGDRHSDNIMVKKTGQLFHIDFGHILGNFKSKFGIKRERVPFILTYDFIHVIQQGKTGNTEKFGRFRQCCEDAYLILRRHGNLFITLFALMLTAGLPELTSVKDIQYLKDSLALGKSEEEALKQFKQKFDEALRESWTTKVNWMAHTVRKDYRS
T4 sequence (P48736 whole entry): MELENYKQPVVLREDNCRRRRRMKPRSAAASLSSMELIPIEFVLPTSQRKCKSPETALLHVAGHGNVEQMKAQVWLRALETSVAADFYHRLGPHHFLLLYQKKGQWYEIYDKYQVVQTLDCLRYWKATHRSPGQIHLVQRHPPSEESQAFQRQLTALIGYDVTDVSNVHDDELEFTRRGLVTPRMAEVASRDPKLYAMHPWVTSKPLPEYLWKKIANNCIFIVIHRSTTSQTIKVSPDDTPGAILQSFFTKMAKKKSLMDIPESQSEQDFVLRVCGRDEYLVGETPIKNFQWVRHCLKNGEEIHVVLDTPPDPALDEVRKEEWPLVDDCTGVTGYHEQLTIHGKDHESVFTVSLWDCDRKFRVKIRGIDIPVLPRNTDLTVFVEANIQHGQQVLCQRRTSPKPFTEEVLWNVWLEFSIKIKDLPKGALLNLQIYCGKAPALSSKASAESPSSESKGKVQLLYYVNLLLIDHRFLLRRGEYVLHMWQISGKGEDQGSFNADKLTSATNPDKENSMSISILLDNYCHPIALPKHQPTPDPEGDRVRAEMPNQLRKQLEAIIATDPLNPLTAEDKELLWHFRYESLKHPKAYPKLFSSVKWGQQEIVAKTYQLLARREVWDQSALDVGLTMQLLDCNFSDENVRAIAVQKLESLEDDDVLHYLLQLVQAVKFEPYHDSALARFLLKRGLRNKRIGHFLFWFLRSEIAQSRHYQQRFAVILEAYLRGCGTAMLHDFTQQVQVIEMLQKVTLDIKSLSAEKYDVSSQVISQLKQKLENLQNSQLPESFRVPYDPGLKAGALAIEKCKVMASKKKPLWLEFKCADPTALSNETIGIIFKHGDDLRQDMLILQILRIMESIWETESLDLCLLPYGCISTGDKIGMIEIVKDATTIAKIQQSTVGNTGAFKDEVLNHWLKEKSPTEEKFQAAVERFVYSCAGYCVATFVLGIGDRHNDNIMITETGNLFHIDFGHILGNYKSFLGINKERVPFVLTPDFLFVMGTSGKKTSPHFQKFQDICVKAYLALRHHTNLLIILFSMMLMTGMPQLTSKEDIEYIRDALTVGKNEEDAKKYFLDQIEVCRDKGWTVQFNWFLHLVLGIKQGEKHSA

SMILES	Kd (PIK3Cβ_h)	Kd (MTOR_h)	IC50 [1]	Kd (PIK3Cδ_h)	Kd (PIK3Cγ_h)	IC50 [2]	Kd (PIK3Cα_h)
Cc1c(Cn2c(C)nc3c(N)nc(N4CCOCC4)cc32)cccc1C(F)(F)F [Compound 15]	398 nM	> 30200 nM	120 nM	6300 nM	> 30200 nM	90 nM	18200 nM
Cc1c(F)cccc1Cn1c(C)nc2c(N)nc(C3=CCOCC3)cc21 [Compound 14]	11 nM	> 30200 nM	320 nM	3300 nM	21900 nM	220 nM	> 30200 nM
Cc1cccc(Cn2c(C)nc3c(N)nc(N4CCOCC4)cc32)c1C [Compound 17]	19 nM	> 30200 nM	~230 nM	1500 nM	> 30200 nM	190 nM	8300 nM
Cc1c(F)cccc1Cn1c(C)nc2c(N)nc(N3CCOCC3)cc21 [Compound 16]	132 nM	> 30200 nM	410 nM	5600 nM	> 30200 nM	180 nM	> 30200 nM
Cc1nc2cnc(N3CCOCC3)cc2n1Cc1cccc2c1CN(C)CC2 [Compound 10]	100 nM	> 30200 nM	> 510 nM	4200 nM	> 30200 nM	> 510 nM	26900 nM
Cc1c(Cn2c(CN3CC(O)C3)nc3cnc(N4CCOCC4)cc32)cccc1C(F)(F)F [Compound 7]	3 nM	4600 nM	480 nM	1100 nM	> 30200 nM	390 nM	2200 nM
Cc1c(Cn2c(CN3CC4(CC(O)C4)C3)nc3cnc(N4CCOCC4)cc32)cccc1C(F)(F)F [Compound 3]	1 nM	> 30200 nM	70 nM	200 nM	> 30200 nM	40 nM	1600 nM
Cc1c(Cn2c(C)nc3cnc(C4=CCOCC4)cc32)cccc1C(F)(F)F [Compound 13]	3 nM	> 30200 nM	170 nM	1300 nM	17000 nM	80 nM	5900 nM
Cc1cccc(Cn2c(C)nc3c(N)nc(C4=CCOCC4)cc32)c1C [Compound 12]	3 nM	> 30200 nM	310 nM	700 nM	> 30200 nM	110 nM	13200 nM
Cc1c(Cn2c(CN3CCS(=O)(=O)CC3)nc3cnc(N4CCOCC4)cc32)cccc1C(F)(F)F [Compound 8]	11 nM	> 30200 nM		2600 nM	> 30200 nM	290 nM	11000 nM
Cc1nc2cnc(N3CCOCC3)cc2n1Cc1cccc2c1CNCC2 [Compound 9]	79 nM	> 30200 nM	~480 nM	5100 nM	> 30200 nM	~460 nM	> 30200 nM
Cc1c(Cn2c(C)nc3c(N)nc(C4=CCOCC4)cc32)cccc1C(F)(F)F [Compound 4]	9 nM	> 30200 nM	~140 nM	4300 nM	> 30200 nM	150 nM	17000 nM
Cc1c(Cl)cccc1Cn1c(C)nc2cnc(N3CCOCC3)cc21 [Compound 1]	2 nM	≥ 30200 nM	40 nM	600 nM	9500 nM	30 nM	2100 nM
Cc1nc2cnc(N3CCOCC3)cc2n1Cc1cccc2c1CN(CCO)CC2 [Compound 11]	27 nM	> 30200 nM	> 510 nM	1300 nM	32400 nM	> 510 nM	8700 nM
Cc1c(Cn2c(CO)nc3cnc(N4CCOCC4)cc32)cccc1C(F)(F)F [Compound 6]	1 nM	≥ 30200 nM	50 nM	800 nM	18200 nM	40 nM	2800 nM
Cc1c(Cn2c(C)nc3cnc(N4CCOCC4)cc32)cccc1C(F)(F)F [Compound 2]	2 nM	> 30200 nM	180 nM	1500 nM	22400 nM	430 nM	3700 nM
Cc1c(Cl)cccc1Cn1c(CN2CCS(=O)(=O)CC2)nc2cnc(N3CCOCC3)cc21 [Compound 5]	4 nM	> 30200 nM	~100 nM	1500 nM	> 30200 nM	130 nM	2600 nM
